How the values were obtained:
Assay type in all cases: in vivo
[1] = system: tobacco budworm (Heliothis virescens); experiment: Tobacco budworm egg/larval test on insect diet, 96-well plates; details: 120 h, sprayed onto insect diet, egg and larval mortality, 5 days, read-out: mortality in comparison with untreated controls
Procedure: (§1) The test solution was prepared the day it was used and in general at concentrations of […] (wt/vol).
(§2) For evaluating control of tobacco budworm (Heliothis virescens) the test unit consisted of 96-well-microtiter plates containing an insect diet and 15-25 H. virescens eggs. The compounds were formulated using a solution containing 75% v/v water and 25% v/v DMSO. Different concentrations of formulated compounds were sprayed onto the insect diet at 10 μl, using a custom built micro atomizer, at two replications. After application, microtiter plates were incubated at about 28±1° C. and about 80±5% relative humidity for 5 days. Egg and larval mortality was then visually assessed.

[2] = system: green peach aphid (Myzus persicae); experiment: Green peach aphid systemic test, artificial diet under membrane, 96-well plates; details: 72 h, adult aphids on treated artificial diet, 3 days, read-out: mortality in comparison with untreated controls
Procedure: as §1
For evaluating control of green peach aphid (Myzus persicae) through systemic means the test unit consisted of 96-well-microtiter plates containing liquid artificial diet under an artificial membrane.
The compounds were formulated using a solution containing 75% v/v water and 25% v/v DMSO. Different concentrations of formulated compounds were pipetted into the aphid diet, using a custom built pipetter, at two replications.
After application, 5-8 adult aphids were placed on the artificial membrane inside the microtiter plate wells. The aphids were then allowed to suck on the treated aphid diet and incubated at about 23±1° C. and about 50±5% relative humidity for 3 days. Aphid mortality and fecundity was then visually assessed.

[3] = system: southern armyworm (Spodoptera eridania); experiment: Southern armyworm foliar spray test on lima bean plants; details: 96 h, armyworm larvae, 4 days after treatment, read-out: mortality in comparison with untreated controls
Procedure: as §1
The active compounds were formulated in cyclohexanone as a 10,000 ppm solution supplied in tubes. The tubes were inserted into an automated electrostatic sprayer equipped with an atomizing nozzle and they served as stock solutions for which lower dilutions were made in 50% acetone:50% water (v/v). A nonionic surfactant (Kinetic®) was included in the solution at a volume of 0.01% (v/v).
Lima bean plants (variety Sieva) were grown 2 plants to a pot and selected for treatment at the 1St true leaf stage. Test solutions were sprayed onto the foliage by an automated electrostatic plant sprayer equipped with an atomizing spray nozzle. The plants were dried in the sprayer fume hood and then removed from the sprayer. Each pot was placed into perforated plastic bags with a zip closure. About 10 to 11 armyworm larvae were placed into the bag and the bags zipped closed. Test plants were maintained in a growth room at about 25° C. and about 20-40% relative humidity for 4 days, avoiding direct exposure to fluorescent light (24 hour photoperiod) to prevent trapping of heat inside the bags. Mortality and reduced feeding were assessed 4 days after treatment, compared to untreated control plants.

[4] = system: Mediterranean fruitfly (Ceratitis capitata); experiment: Mediterranean fruitfly egg/larval test on insect diet, microtiter plates; details: 120 h, sprayed onto insect diet, egg and larval mortality, 5 days, read-out: mortality in comparison with untreated controls
Procedure: as §1
For evaluating control of Mediterranean fruitfly (Ceratitis capitata) the test unit consisted of microtiter plates containing an insect diet and 50-80 C. capitata eggs.
as §2, with “The” for “For evaluating control of tobacco budworm (Heliothis virescens) the test unit consisted of 96-well-microtiter plates containing an insect diet and 15-25 H. virescens eggs. The”, “5” for “10”

[5] = system: boll weevil (Anthonomus grandis); experiment: Boll weevil egg/larval test on insect diet, 24-well plates; details: 120 h, sprayed onto insect diet, egg and larval mortality, 5 days, read-out: mortality in comparison with untreated controls
Procedure: as §1
For evaluating control of boll weevil (Anthonomus grandis) the test unit consisted of 24-well-microtiter plates containing an insect diet and 20-30 A. grandis eggs.
The compounds were formulated using a solution containing 75% v/v water and 25% v/v DMSO. Different concentrations of formulated compounds were sprayed onto the insect diet at 20 μl, using a custom built micro atomizer, at two replications.
After application, microtiter plates were incubated at about 23±1° C. and about 50±5% relative humidity for 5 days. Egg and larval mortality was then visually assessed.

FC(F)(F)C1(c2cc(Cl)cc(Cl)c2)CC(c2ccnc3c(Br)cccc23)=NO1 (centres unmarked) [Compound 1-1, 8-bromo-4-[5-(3,5-dichloro-phenyl)-5-trifluoromethyl-4,5-di-hydroisoxazol-3-yl]-quinoline]
> 75%: mortality at 2500 ppm [1] | mortality at 2500 ppm [2] | mortality at 300 ppm [3] | mortality at 2500 ppm [4] | mortality at 2500 ppm [5]

N#Cc1cccc2c(C3=NOC(c4cc(Cl)cc(Cl)c4)(C(F)(F)F)C3)ccnc12 (centres unmarked) [Compound 1-2, 4-[5-(3,5-dichloro-phenyl)-5-trifluoromethyl-4,5-di-hydroisoxazol-3-yl]-quinoline-8-carbonitrile]
> 75%: mortality at 2500 ppm [1] | mortality at 300 ppm [3] | mortality at 2500 ppm [4] | mortality at 2500 ppm [5]

COC(=O)c1cccc2c(C3=NOC(c4cc(Cl)cc(Cl)c4)(C(F)(F)F)C3)ccnc12 (centres unmarked) [Compound 1-3, 4-[5-(3,5-dichloro-phenyl)-5-trifluoromethyl-4,5-di-hydroisoxazol-3-yl]-quinoline-8-carboxylic acid methyl ester]
> 75%: mortality at 2500 ppm [4] | mortality at 2500 ppm [5]
